Converted amounts (≈) assume the structure as drawn.
Legend:
[1] = AUC in monkey at 10 mg/kg, po by LC/MS/MS analysis; assay type: ADME, organism-based, Macaca mulatta; settings: rhesus monkey, in vivo
[2] = Oral bioavailability in monkey at 10 mg/kg by LC/MS/MS analysis; assay type: ADME, organism-based, Macaca mulatta; settings: rhesus monkey, in vivo
[3] = AUC in rat at 10 mg/kg, po by LC/MS/MS analysis; assay type: ADME, organism-based; settings: in vivo
[4] = Oral bioavailability in rat at 10 mg/kg by LC/MS/MS analysis; assay type: ADME, organism-based; settings: in vivo
[5] = AUC in dog at 10 mg/kg, po by LC/MS/MS analysis; assay type: ADME, organism-based, Canis lupus familiaris; settings: in vivo
[6] = Oral bioavailability in dog at 10 mg/kg by LC/MS/MS analysis; assay type: ADME, organism-based, Canis lupus familiaris; settings: in vivo
Rattus norvegicus [7] = test: AUC in rat assessed as (S)-5-(furo[3,2-b]pyridin-2-yl)-5-((6-methoxy-1-oxoisoindolin-2-yl)methyl)imidazolidine-2,4-dione level at 10 mg/kg, po by HPLC/MS analysis; assay type: ADME, organism-based; settings: in vivo
[8] = target: Disintegrin and metalloproteinase domain-containing protein 17 (Homo sapiens, UniProt P78536); test: Inhibition of TACE in human whole blood assessed as inhibition of LPS-stimulated TNFalpha production pretreated for 1 hr followed by LPS stimulation for 3.5 hrs by ELISA
Rattus norvegicus [9] = test: AUC in rat assessed as (S)-5-(5-(4-ethylpiperazin-1-yl)furo[3,2-b]pyridin-2-yl)-5-((7-fluoro-6-methoxy-1-oxoisoindolin-2-yl)methyl)imidazolidine-2,4-dione level at 10 mg/kg, po by LC/MS/MS analysis; assay type: ADME, organism-based; settings: in vivo
Rattus norvegicus [10] = test: Oral bioavailability in rat assessed as (S)-5-(5-(4-ethylpiperazin-1-yl)furo[3,2-b]pyridin-2-yl)-5-((7-fluoro-6-methoxy-1-oxoisoindolin-2-yl)methyl)imidazolidine-2,4-dione level at 10 mg/kg by LC/MS/MS analysis; assay type: ADME, organism-based; settings: in vivo
Liver [11] = test: Prodrug activation in human liver microsomes assessed as (S)-5-(furo[3,2-b]pyridin-2-yl)-5-((6-methoxy-1-oxoisoindolin-2-yl)methyl)imidazolidine-2,4-dione formation; assay type: microsome
[12] = Solubility of the compound at pH 6.5; assay type: physicochemical; settings: buffer
Rattus norvegicus [13] = test: AUC in rat assessed as (S)-5-(furo[3,2-b]pyridin-2-yl)-5-((6-methoxy-1-oxoisoindolin-2-yl)methyl)imidazolidine-2,4-dione level at 500 mg/kg, po administered as single dose by LC/MS/MS analysis; assay type: ADME, organism-based; settings: in vivo
Rattus norvegicus [14] = test: AUC in rat assessed as (S)-5-(furo[3,2-b]pyridin-2-yl)-5-((6-methoxy-1-oxoisoindolin-2-yl)methyl)imidazolidine-2,4-dione level at 300 mg/kg, po administered as single dose by LC/MS/MS analysis; assay type: ADME, organism-based; settings: in vivo
[15] = Permeability in human Caco2 cells at pH 7.4; assay type: ADME, cell-based; settings: Caco-2, pH 7.4, read-out: permeability
Liver [16] = test: Prodrug activation in dog liver microsomes assessed as (S)-5-(furo[3,2-b]pyridin-2-yl)-5-((6-methoxy-1-oxoisoindolin-2-yl)methyl)imidazolidine-2,4-dione formation; assay type: Canis lupus familiaris, microsome
Rattus norvegicus [17] = test: AUC in rat assessed as (S)-5-(furo[3,2-b]pyridin-2-yl)-5-((6-methoxy-1-oxoisoindolin-2-yl)methyl)imidazolidine-2,4-dione level at 100 mg/kg, po administered as single dose by LC/MS/MS analysis; assay type: ADME, organism-based; settings: in vivo
Rhesus monkey = test: Oral bioavailability in monkey assessed as (S)-5-(furo[3,2-b]pyridin-2-yl)-5-((6-methoxy-1-oxoisoindolin-2-yl)methyl)imidazolidine-2,4-dione level by LC/MS/MS analysis; assay type: ADME, organism-based, Macaca mulatta; settings: in vivo
[18] = Prodrug activation in human intestinal microsomes assessed as (S)-5-(furo[3,2-b]pyridin-2-yl)-5-((6-methoxy-1-oxoisoindolin-2-yl)methyl)imidazolidine-2,4-dione formation; design: species or system Intestine, Microsome
Liver [19] = test: Prodrug activation in mouse liver microsomes assessed as (S)-5-(furo[3,2-b]pyridin-2-yl)-5-((6-methoxy-1-oxoisoindolin-2-yl)methyl)imidazolidine-2,4-dione formation; assay type: microsome
Liver [20] = test: Prodrug activation in rat liver microsomes assessed as (S)-5-(furo[3,2-b]pyridin-2-yl)-5-((6-methoxy-1-oxoisoindolin-2-yl)methyl)imidazolidine-2,4-dione formation; assay type: microsome
Rattus norvegicus [21] = test: Oral bioavailability in rat assessed as (S)-5-(furo[3,2-b]pyridin-2-yl)-5-((6-methoxy-1-oxoisoindolin-2-yl)methyl)imidazolidine-2,4-dione level at 10 mg/kg by LC/MS/MS analysis; assay type: ADME, organism-based; settings: in vivo
[22] = Prodrug activation in monkey liver microsomes assessed as (S)-5-(furo[3,2-b]pyridin-2-yl)-5-((6-methoxy-1-oxoisoindolin-2-yl)methyl)imidazolidine-2,4-dione formation; assay type: Macaca mulatta, microsome; settings: rhesus monkey
Canis familiaris = test: Oral bioavailability in dog assessed as (S)-5-(furo[3,2-b]pyridin-2-yl)-5-((6-methoxy-1-oxoisoindolin-2-yl)methyl)imidazolidine-2,4-dione level by LC/MS/MS analysis; assay type: ADME, organism-based, Canis lupus familiaris; settings: in vivo
[23] = AUC in rat at 10 mg/kg, po by HPLC/MS analysis; assay type: ADME, organism-based; settings: in vivo
[24] = AUC in rat at 100 mg/kg, po administered as single dose by LC/MS/MS analysis; assay type: ADME, organism-based; settings: in vivo
[25] = AUC in rat at 300 mg/kg, po administered as single dose by LC/MS/MS analysis; assay type: ADME, organism-based; settings: in vivo
[26] = AUC in rat at 500 mg/kg, po administered as single dose by LC/MS/MS analysis; assay type: ADME, organism-based; settings: in vivo

Sequence of Disintegrin and metalloproteinase domain-containing protein 17 (P78536 whole entry, the tested form may be a part): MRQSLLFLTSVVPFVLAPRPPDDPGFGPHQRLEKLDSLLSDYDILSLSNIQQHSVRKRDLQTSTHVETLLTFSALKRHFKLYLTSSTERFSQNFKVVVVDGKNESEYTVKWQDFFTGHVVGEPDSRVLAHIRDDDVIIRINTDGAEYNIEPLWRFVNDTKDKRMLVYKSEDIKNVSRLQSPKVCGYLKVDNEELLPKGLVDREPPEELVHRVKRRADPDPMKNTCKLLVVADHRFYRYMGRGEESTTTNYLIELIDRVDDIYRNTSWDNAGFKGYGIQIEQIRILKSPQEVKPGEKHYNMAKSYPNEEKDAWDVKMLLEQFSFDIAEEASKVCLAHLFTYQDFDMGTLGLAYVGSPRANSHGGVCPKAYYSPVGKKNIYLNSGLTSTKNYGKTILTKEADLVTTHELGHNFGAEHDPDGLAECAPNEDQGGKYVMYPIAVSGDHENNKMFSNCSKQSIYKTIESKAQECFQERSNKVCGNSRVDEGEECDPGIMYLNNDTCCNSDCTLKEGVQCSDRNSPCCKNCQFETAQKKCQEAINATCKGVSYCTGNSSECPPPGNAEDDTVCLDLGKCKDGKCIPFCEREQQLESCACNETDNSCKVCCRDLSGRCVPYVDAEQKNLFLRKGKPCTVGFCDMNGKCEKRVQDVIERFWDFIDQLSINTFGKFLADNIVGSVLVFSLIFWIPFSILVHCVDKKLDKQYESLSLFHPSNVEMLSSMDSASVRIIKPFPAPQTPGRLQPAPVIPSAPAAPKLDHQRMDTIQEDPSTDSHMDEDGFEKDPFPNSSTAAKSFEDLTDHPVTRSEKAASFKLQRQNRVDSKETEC

Row | SMILES | AUC (Rattus norvegicus [7]) [µM·h] | IC50 [8] [nM] | other results
1 | COc1ccc2c(c1)C(=O)N(C[C@@]1(c3cc4ncccc4o3)NC(=O)NC1=O)C2.[Na+] |  |  | AUC [1]: 5.2 µM·h; bioavailability [2]: 46%; AUC [3]: 10 µM·h; bioavailability [4]: 35%; AUC [5]: 41 µM·h; bioavailability [6]: 82%
2 | COc1ccc2c(c1)C(=O)N(C[C@@]1(c3cc4nc(N5CCNCC5)ccc4o3)NC(=O)N(COC(=O)C(C)(C)C)C1=O)C2 |  | 156 | 
3 | COc1ccc2c(c1)C(=O)N(C[C@@]1(c3cc4ncccc4o3)NC(=O)N(COC(=O)c3ccccc3OC(C)=O)C1=O)C2 | 4.4 | 560 | 
4 | CCN1CCN(c2ccc3oc([C@]4(CN5Cc6ccc(OC)c(F)c6C5=O)NC(=O)N(COC(=O)C(C)(C)C)C4=O)cc3n2)CC1 | 20 | 61 | AUC (Rattus norvegicus [9]): 4.7 µM·h; F (Rattus norvegicus [10]): 7%
5 | COc1ccc2c(c1)C(=O)N(C[C@@]1(c3cc4ncccc4o3)NC(=O)N(COC(=O)C(C)(C)C)C1=O)C2 | 13.1 | 281 | Drug metabolism (Liver [11]): Metabolite_Detected; solubility [12]: 175 µM (≈ 88.6 µg/mL); AUC (Rattus norvegicus [13]): 1450 µM·h; AUC (Rattus norvegicus [14]): 780 µM·h; Papp [15]: > 11.6 ×10⁻⁶ cm/s; Drug metabolism (Liver [16]): Metabolite_Detected; AUC (Rattus norvegicus [17]): 210 µM·h; F (Rhesus monkey): 92%; Drug metabolism [18]: Metabolite_Detected; Drug metabolism (Liver [19]): Metabolite_Detected; Drug metabolism (Liver [20]): Metabolite_Detected; F (Rattus norvegicus [21]): 74%; Drug metabolism [22]: Metabolite_Detected; F (Canis familiaris): 72%
6 | COc1ccc2c(c1)C(=O)N(C[C@@]1(c3cc4ncccc4o3)NC(=O)NC1=O)C2 |  | 287 | solubility [12]: 39 µM (≈ 15.3 µg/mL); AUC [23]: 8.6 µM·h; Papp [15]: 1.2 ×10⁻⁶ cm/s; AUC [24]: 120 µM·h; AUC [25]: 130 µM·h; AUC [26]: 240 µM·h
7 | CCOP(=O)(OCC)OCN1C(=O)N[C@@](CN2Cc3ccc(OC)cc3C2=O)(c2cc3ncccc3o2)C1=O | 0.05 |  | 
8 | COc1ccc2c(c1F)C(=O)N(C[C@@]1(c3cc4nc(N)ccc4o3)NC(=O)N(COC(=O)C(C)(C)C)C1=O)C2 | 0.4 | 178 | 
9 | COc1ccc2c(c1)C(=O)N(C[C@@]1(c3cc4ncccc4o3)NC(=O)N(C(C)C)C1=O)C2 | 0.4 | 7150 | 
10 | COc1ccc2c(c1)C(=O)N(C[C@@]1(c3cc4nc(N5CC[C@@H](O)C5)ccc4o3)NC(=O)N(COC(=O)C(C)(C)C)C1=O)C2 | 2.7 | 339 | 
11 | COc1ccc2c(c1F)C(=O)N(C[C@@]1(c3cc4nc(N5CCN(C)CC5)ccc4o3)NC(=O)N(COC(=O)C(C)(C)C)C1=O)C2 | 8.6 | 92 | 

Further lines, with some results ahead:

Row | AUC (Rattus norvegicus [7]) [µM·h] | IC50 [8] [nM] | SMILES | other results
12 | 0.7 | 176 | CCN1CCN(c2ccc3oc([C@]4(CN5Cc6ccc(OC)cc6C5=O)NC(=O)N(COC(=O)C(C)(C)C)C4=O)cc3n2)CC1 | 
13 | 0.6 | 104 | COc1ccc2c(c1F)C(=O)N(C[C@@]1(c3cc4nc(N5CCNC(=O)C5)ccc4o3)NC(=O)N(COC(=O)C(C)(C)C)C1=O)C2 | 
14 | 3.1 |  | COc1ccc2c(c1)C(=O)N(C[C@]1(c3cc4ncccc4o3)C(=O)N(COC(=O)C(C)(C)C)C(=O)N1COC(=O)C(C)(C)C)C2 | 
15 | 0.9 |  | CCN1C(=O)N[C@@](CN2Cc3ccc(OC)cc3C2=O)(c2cc3ncccc3o2)C1=O | 
16 | 0.9 |  | COc1ccc2c(c1)C(=O)N(C[C@@]1(c3cc4ncccc4o3)NC(=O)N(C)C1=O)C2 | 
17 | 0.3 | 141 | COc1ccc2c(c1F)C(=O)N(C[C@@]1(c3cc4nc(-c5cn[nH]c5)ccc4o3)NC(=O)N(COC(=O)C(C)(C)C)C1=O)C2 | 
18 | 0.2 | 282 | COc1ccc2c(c1)C(=O)N(C[C@@]1(c3cc4nc(N5CCCNC5=O)ccc4o3)NC(=O)N(COC(=O)C(C)(C)C)C1=O)C2 | 
19 | 0.02 |  | COCCOCCOCCN1C(=O)N[C@@](CN2Cc3ccc(OC)cc3C2=O)(c2cc3ncccc3o2)C1=O | 

— ChEMBL document CHEMBL4052764, “Development of a prodrug of hydantoin based TACE inhibitor” (Bioorg Med Chem Lett, 2017)
